Source: publication PMC8086052 (Japanese Journal of Clinical Oncology, 2021)
Entries after “also recorded” stand apart in the source; their conditions may differ. Where two headings read alike, the source gives them in different places.

Key:
[1] = Plasma pharmacokinetics of niraparib and M1, cycle 1 days 1 and 21; type: in vivo, human; details: for AUC(0-t) / Cmax: oral; for Cmax / Cmin: geometric mean (SD)
[2] = system: Japanese patients with advanced solid tumours; details: for Tolerability: 200 or 300 mg/day, Japanese patients with advanced solid tumours; for Patients with dose-limiting toxicity (DLT) in cycle 1: cohort 2, 300 mg/day (n = 6)
[3] = system: metastatic or locally advanced solid tumours
[4] = system: non-Japanese patients with advanced solid tumours; details: phase I studies in USA and Europe; cited from earlier work
[5] = cancer patients; cited from earlier work
[6] = system: platinum-sensitive recurrent ovarian cancer; details: cited from earlier work
[7] = system: newly diagnosed advanced ovarian cancer; details: regardless of presence or absence of HRd; cited from earlier work
[8] = cited from earlier work
[9] = Niraparib 200 mg/day (n = 3), Any grade
[10] = Niraparib 200 mg/day (n = 3), Grade 3/4
[11] = Niraparib 300 mg/day (n = 6), Any grade
[12] = Niraparib 300 mg/day (n = 6), Grade 3/4
[13] = cohort 2, 300 mg/day, listed as niraparib
[14] = cohort 2, 300 mg/day, three patients

NC(=O)c1cccc2cn(-c3ccc([C@@H]4CCCNC4)cc3)nc12 [Niraparib, niraparib]
Dose dependence of mean Cmax and AUC0–24 ([1]; 200 and 300 mg/day, after multiple doses): increased dose-proportionally; also recorded: generally increased in a dose-proportional manner | AUC(0-t) ([1]; human, plasma, 200 mg/day): 4930 ng·h/mL | Cmax ([1]; human, plasma, 200 mg/day, plasma, Cycle 1 Day 1, Niraparib 200 mg/day (n = 3)): 443 ng/mL | Cmax ([1]; human, plasma, 200 mg/day, plasma, Cycle 1 Day 21, Niraparib 200 mg/day (n = 3)): 729 ng/mL | AUC(0-t) ([1]; human, plasma, 300 mg/day): 6270 ng·h/mL | Cmax ([1]; human, plasma, 300 mg/day, plasma, Cycle 1 Day 1, Niraparib 300 mg/day (n = 6)): 530 ng/mL | Cmax ([1]; human, plasma, 300 mg/day, plasma, Cycle 1 Day 21, Niraparib 300 mg/day (n = 4)): 1170 ng/mL | Tmax ([1]; human, plasma, po, median tmax, single (cycle 1, day 1) and multiple (cycle 1, day 21) oral administration of niraparib 200 and 300 mg/day): 3 to 4 h | Cmin ([1]; plasma, Cycle 1 Day 21, Niraparib 200 mg/day (n = 3)): 405.8 (267.8) ng/ml | Cmin ([1]; plasma, Cycle 1 Day 21, Niraparib 300 mg/day (n = 4)): 592.3 (138.2) ng/ml | Time to recovery from grade 4 thrombocytopenia / platelet count decreased ([2]; 300 mg/day cohort): ~ 10 days | Patients with grade 4 thrombocytopenia or platelet count decreased ([2]; 300 mg/day cohort, day 14 of cycle 1 and day 8 of cycle 2): two patients | AEs of special interest (myelodysplastic syndrome, acute myeloid leukaemia, hypertensive crisis) ([2]; 200 and 300 mg/day): no AEs of special interest | Tolerability [2]: tolerable | Tolerability ([2]; listed as niraparib): generally safe and tolerable | Patients with events: ALT increased [2, 9]: 0 n (%) | Patients with events: AST increased [2, 9]: 0 n (%) | Patients with events: Anaemia [2, 9]: 0 n (%) | Patients with events: Any TEAE [2, 9]: 3 (100.0) n (%) | Patients with events: Blood ALP increased [2, 9]: 1 (33.3) n (%) | Patients with events: Blood creatinine increased [2, 9]: 1 (33.3) n (%) | Patients with events: Chest pain [2, 9]: 0 n (%) | Patients with events: Constipation [2, 9]: 1 (33.3) n (%) | Patients with events: Decreased appetite [2, 9]: 2 (66.7) n (%) | Patients with events: Diabetes mellitus [2, 9]: 0 n (%) | Patients with events: Diarrhoea [2, 9]: 0 n (%) | Patients with events: Fatigue [2, 9]: 2 (66.7) n (%) | Patients with events: Febrile neutropenia [2, 9]: 0 n (%) | Patients with events: GGT increased [2, 9]: 0 n (%) | Patients with events: Hypertension [2, 9]: 0 n (%) | Patients with events: Malaise [2, 9]: 1 (33.3) n (%) | Patients with events: Nausea [2, 9]: 1 (33.3) n (%) | Patients with events: Platelet count decreased [2, 9]: 1 (33.3) n (%) | Patients with events: Pyelonephritis [2, 9]: 0 n (%) | Patients with events: Thrombocytopenia [2, 9]: 0 n (%) | Patients with events: Vomiting [2, 9]: 2 (66.7) n (%) | Patients with events: White blood cell count decreased [2, 9]: 1 (33.3) n (%) | Patients with events: ALT increased [2, 10]: 0 n (%) | Patients with events: AST increased [2, 10]: 0 n (%) | Patients with events: Anaemia [2, 10]: 0 n (%) | Patients with events: Any TEAE [2, 10]: 1 (33.3) n (%) | Patients with events: Blood ALP increased [2, 10]: 1 (33.3) n (%) | Patients with events: Blood creatinine increased [2, 10]: 0 n (%) | Patients with events: Chest pain [2, 10]: 0 n (%) | Patients with events: Constipation [2, 10]: 0 n (%) | Patients with events: Decreased appetite [2, 10]: 0 n (%) | Patients with events: Diabetes mellitus [2, 10]: 0 n (%) | Patients with events: Diarrhoea [2, 10]: 0 n (%) | Patients with events: Fatigue [2, 10]: 0 n (%) | Patients with events: Febrile neutropenia [2, 10]: 0 n (%) | Patients with events: GGT increased [2, 10]: 0 n (%) | Patients with events: Hypertension [2, 10]: 0 n (%) | Patients with events: Malaise [2, 10]: 0 n (%) | Patients with events: Nausea [2, 10]: 0 n (%) | Patients with events: Platelet count decreased [2, 10]: 0 n (%) | Patients with events: Pyelonephritis [2, 10]: 0 n (%) | Patients with events: Thrombocytopenia [2, 10]: 0 n (%) | Patients with events: Vomiting [2, 10]: 0 n (%) | Patients with events: White blood cell count decreased [2, 10]: 1 (33.3) n (%) | Patients with events: ALT increased [2, 11]: 3 (50.0) n (%) | Patients with events: AST increased [2, 11]: 5 (83.3) n (%) | Patients with events: Anaemia [2, 11]: 3 (50.0) n (%) | Patients with events: Any TEAE [2, 11]: 6 (100.0) n (%) | Patients with events: Blood ALP increased [2, 11]: 4 (66.7) n (%) | Patients with events: Blood creatinine increased [2, 11]: 1 (16.7) n (%) | Patients with events: Chest pain [2, 11]: 2 (33.3) n (%) | Patients with events: Constipation [2, 11]: 2 (33.3) n (%) | Patients with events: Decreased appetite [2, 11]: 2 (33.3) n (%) | Patients with events: Diabetes mellitus [2, 11]: 1 (16.7) n (%) | Patients with events: Diarrhoea [2, 11]: 2 (33.3) n (%) | Patients with events: Fatigue [2, 11]: 1 (16.7) n (%) | Patients with events: Febrile neutropenia [2, 11]: 1 (16.7) n (%) | Patients with events: GGT increased [2, 11]: 3 (50.0) n (%) | Patients with events: Hypertension [2, 11]: 2 (33.3) n (%) | Patients with events: Malaise [2, 11]: 2 (33.3) n (%) | Patients with events: Nausea [2, 11]: 4 (66.7) n (%) | Patients with events: Platelet count decreased [2, 11]: 5 (83.3) n (%) | Patients with events: Pyelonephritis [2, 11]: 1 (16.7) n (%) | Patients with events: Thrombocytopenia [2, 11]: 1 (16.7) n (%) | Patients with events: Vomiting [2, 11]: 2 (33.3) n (%) | Patients with events: White blood cell count decreased [2, 11]: 1 (16.7) n (%) | Patients with events: ALT increased [2, 12]: 1 (16.7) n (%) | Patients with events: AST increased [2, 12]: 0 n (%) | Patients with events: Anaemia [2, 12]: 1 (16.7) n (%) | Patients with events: Any TEAE [2, 12]: 4 (66.7) n (%) | Patients with events: Blood ALP increased [2, 12]: 1 (16.7) n (%) | Patients with events: Blood creatinine increased [2, 12]: 0 n (%) | Patients with events: Chest pain [2, 12]: 0 n (%) | Patients with events: Constipation [2, 12]: 0 n (%) | Patients with events: Decreased appetite [2, 12]: 0 n (%) | Patients with events: Diabetes mellitus [2, 12]: 1 (16.7) n (%) | Patients with events: Diarrhoea [2, 12]: 0 n (%) | Patients with events: Fatigue [2, 12]: 0 n (%) | Patients with events: Febrile neutropenia [2, 12]: 1 (16.7) n (%) | Patients with events: GGT increased [2, 12]: 2 (33.3) n (%) | Patients with events: Hypertension [2, 12]: 0 n (%) | Patients with events: Malaise [2, 12]: 0 n (%) | Patients with events: Nausea [2, 12]: 0 n (%) | Patients with events: Platelet count decreased [2, 12]: 1 (16.7) n (%) | Patients with events: Pyelonephritis [2, 12]: 1 (16.7) n (%) | Patients with events: Thrombocytopenia [2, 12]: 1 (16.7) n (%) | Patients with events: Vomiting [2, 12]: 0 n (%) | Patients with events: White blood cell count decreased [2, 12]: 0 n (%) | Patients who discontinued treatment due to a TEAE ([2]; cohort 1, 200 mg/day): no patient | Treatment-related TEAE: decreased appetite ([2]; cohort 1, 200 mg/day): 2 n | Patients with grade 3 treatment-related AEs ([2]; cohort 1, 200 mg/day, blood alkaline phosphatase increased, white blood cell count decreased): one patient | Treatment-related TEAE: decreased appetite ([2]; cohort 1, 200 mg/day, listed as niraparib): 66.7% | Patients with grade ≥ 3 treatment-related AEs ([2]; cohort 2, 300 mg/day): five patients | Patients with treatment-related grade 3 alanine aminotransferase increased ([2]; cohort 2, 300 mg/day): one patient | Patients with treatment-related grade 3 anaemia ([2]; cohort 2, 300 mg/day): two patients | Patients with treatment-related grade 3 febrile neutropenia ([2]; cohort 2, 300 mg/day): one patient | Patients with treatment-related grade 3 gamma-glutamyl transferase increased ([2]; cohort 2, 300 mg/day): one patient | Total number of grade ≥ 3 treatment-related AEs ([2]; cohort 2, 300 mg/day): 11 | Treatment-related TEAE: aspartate aminotransferase increased ([2]; cohort 2, 300 mg/day): 5 n | Treatment-related TEAE: platelet count decreased ([2]; cohort 2, 300 mg/day): 5 n | Patients with dose-limiting toxicity (DLT) in cycle 1 [2]: 16.7% | Patients with dose-limiting toxicity (DLT) in cycle 1 ([2]; grade 4 platelet count decreased): one patient | Treatment-related TEAE: aspartate aminotransferase increased [2, 13]: 83.3% | Treatment-related TEAE: platelet count decreased [2, 13]: 83.3% | Patients who discontinued treatment due to a TEAE ([2]; cohort 2, 300 mg/day, malaise and gamma-glutamyl transferase increased): Two patients | Patients with a serious AE ([2]; cohort 2, 300 mg/day, pyelonephritis, considered unrelated to niraparib): One patient | Treatment-related TEAE: alkaline phosphatase increased [2, 14]: 50.0% | Treatment-related TEAE: anaemia [2, 14]: 50.0% | Treatment-related TEAE: nausea [2, 14]: 50.0% | Patients with PD (progressive disease) ([3]; both cohorts): four | Patients with partial response ([3]; both in cohort 2 (300 mg/day), lung cancer and bile duct cancer): Two patients | Patients with PD (progressive disease) ([3]; cohort 1, 200 mg/day): All patients | maximum tolerated dose (MTD) [4]: 300 mg once daily | bioavailability after oral administration [5]: ~ 73% | progression-free survival (PFS) compared with placebo ([6]; maintenance treatment, regardless of germline BRCA mutation status): significantly prolonged | Patients requiring a dosage reduction to 200 mg once daily ([6]; starting dosage 300 mg once daily): ~ 70% | progression-free survival (PFS) compared with placebo [7]: significantly prolonged | tumour exposure at steady state [8]: high
